Columns and labels:
[1] = target: Aldo-keto reductase family 1 member B1 (Bos taurus, UniProt P16116); assay: Inhibition of bovine lens aldose reductase with DL-glyceraldehyde as substrate
Rattus norvegicus [2] = assay: Dose that decreased sorbitol accumulation by 50% in the sciatic nerve in the galactosemic rat model after administration for 3 weeks in the diet; format: functional
Rattus norvegicus [3] = assay: Dose that decreased galactitol accumulation by 50% in the sciatic nerve in the galactosemic rat model after administration for 4 days in the diet; format: functional
Rattus norvegicus [4] = assay: Dose that decreased galactitol accumulation by 50% in the sciatic nerve in the galactosemic rat model after administration for 4 days in the diet; 7.3+/-2.3 mg/(kg day); format: functional
Rattus norvegicus [5] = assay: Dose that decreased sorbitol accumulation by 50% in the sciatic nerve in the galactosemic rat model after administration for 3 weeks in the diet; 4.8+/- 2.4 mg/(kg day); format: functional

IC50 [1] | SMILES | Dose (Rattus norvegicus [2]) | Dose (Rattus norvegicus [3]) | Dose (Rattus norvegicus [4]) | Dose (Rattus norvegicus [5])
2700 nM | O=C(O)CN1C(=O)c2cccc3cccc(c23)C1=O [ALRESTATIN] | ~1000 mg/kg/day | ~900 mg/kg/day |  | 
 | COc1ccc2c(C(=S)N(C)CC(=O)O)cccc2c1C(F)(F)F [TOLRESTAT] |  |  | 7.3 mg/kg/day | 4.8 mg/kg/day

Reference: ChEMBL document CHEMBL1122576 (J Med Chem, 1984)
